For assay [1], the system named is ppENK expression in pancreatic cancer cell lines PL3, CAPAN2, MiaPaca2 and Panc1. In words: RT-PCR analysis of ppENK expression after 5Aza-dC treatment. The format is cell-based, human. As to conditions: 4 methylated cell lines (PL3, CAPAN2, MiaPaca2, Panc1), 5Aza-dC at a final concentration of 1 μM for 5 days, coamplified with GAPDH. The protocol:
(§1) Five pancreatic cancer cell lines (PL3, PL8, CAPAN2, Panc1, and MiaPaca2) and four normal pancreata were used for RT-PCR analysis. The cell lines were treated with demethylating agent 5Aza-dC (Sigma Chemical Co.) at a final concentration of 1 μM for 5 days. Total RNA was prepared using TRIzol (Life Technologies, Inc.), reverse-transcribed and amplified. As a control for cDNA integrity, glyceraldehyde-3-phosphate dehydrogenase gene (GAPDH) was also amplified. Primer sequences for RT-PCR are listed in Table 3 and are available at http://pathology2.jhu.edu/pancreas/prim0425.htm, which website is incorporated herein by reference.
(§2) Partial methylation (˜50%) of the 5′ CpG island of Cyclin G in PL8 (FIG. 4C) was associated with decreased expression of Cyclin G by RT-PCR. The 5′ CpG island of Cyclin G was not methylated in a panel of normal pancreata. Cyclin G was expressed in 4 normal pancreata by RT-PCFR. […] Thus, hypermethylation of the 5′ CpG islands of Cyclin G and ppENK is coincides with decreased expression in pancreatic cancers.

The test system of assay [2] is Cyclin G expression in pancreatic cancer cell line PL8. In words: RT-PCR analysis of Cyclin G expression after 5Aza-dC treatment. The format is cell-based, human. As to conditions: methylated cell line PL8, 5Aza-dC at a final concentration of 1 μM for 5 days, coamplified with GAPDH. The method, then:
as §1, §2

[3] abbreviates: listed as 5-aza-2′-deoxycytidine.

For `Nc1ncn([C@H]2C[C@H](O)[C@@H](CO)O2)c(=O)n1` [5Aza-dC, 5-aza-2′-deoxycytidine], the “ppENK expression by RT-PCR” value in assay [1] is recorded as “restored ppENK expression in all 4 cell lines”; in assay [1] (setting [3]), “reversible”; in assay [1] (listed as 5 Aza-dC) it was “restored the ppENK expression”. In addition, the “Cyclin G expression by RT-PCR” value in assay [2] is on record as “restored the expression of Cyclin G”; in assay [2] (setting [3]), “reversible”; in assay [2] (listed as 5 Aza-dC), “increased Cyclin G expression”.

The values above are taken from patent publication US7153653B2, “Differentially methylated sequences in pancreatic cancer” (The Johns Hopkins University School of Medicine, priority 2001, dated 2006).
